Laboratory results as given in patent US11312719B2, “9-substituted amino triazolo quinazoline derivatives as adenosine receptor antagonists, pharmaceutical compositions and their use” (Merck Sharp & Dohme Corp., priority 2018, dated 2022).

What was measured:
human A2A receptors = human A2A receptors (Homo sapiens (Human), UniProt P29274); test: A2A antagonism in cAMP cell-based assay (LANCE cAMP, HEK293); details: HEK293 cells expressing human A2A receptor
Protocol: (§1) Measurement of A2A and A2B Antagonism in cAMP Cell-Based Assay
(§2) The ability of compounds to antagonize human A2A and A2B adenosine receptors was determined using a kit to measure changes in intracellular cyclic AMP levels (LANCE cAMP 384 Kit, Perkin Elmer, Cat. No. AD0264). HEK293 cells recombinantly expressing either human A2A or A2B receptors, previously frozen in Recovery Medium (Life Technologies, Cat. No. 12648-010) were thawed and diluted into stimulation buffer (HBSS (Hyclone SH 30268.01), 5 mM HEPES (Gibco 15630-106), 200 nM rolipram (Tocris, Cat. No. 0905), and 1.5% (V/v) BSA stabilizer (kit component). The cell suspension was centrifuged at 200×g for 10 min and then resuspended in stimulation buffer, supplemented with a 1:10 000 dilution of Alexa Fluor 647 anti-cAMP antibody, to a density of 6.0×10^5 cells/mL. A Labcyte Echo 550 acoustic dispenser was used to transfer up to 25 nL of test compound dissolved in DMSO into the wells of a dry Optiplate-384 plate (Perkin Elmer, Cat. No. 6008289). All subsequent liquid additions were performed using a multichannel pipettor. Next, 5 μL of the cell suspension was added to the wells of the Optiplate-384 and incubated for 30 min. at 37° C. and 5% CO2 in a humidified environment. After this time 5 μL of either 300 nM or 600 nM adenosine (Sigma Cat. No. A9251) for A2A and A2B respectively was added and incubated for 30 minutes at 37° C. and 5% CO2 in a humidified environment. At this time detection mix was prepared by combining the LANCE Eu-W8044 labeled streptavidin and Biotin-cAMP in detection buffer according to the manufacturers protocol. 10 μL of the detection mix was added to each well of the Optiplate-384 which was covered with a plate seal and incubated under ambient conditions for 2 hours prior to reading the plate using an Envision (Perkin Elmer, Waltham, Mass.) multimode plate reader. Data was normalized by defining minimal effect as stimulation in the presence of 0.25% (v/v) DMSO and maximal effect as stimulation in the presence of 1 μM ZM241385 (Cayman, Cat. No. 1036). Curve fitting of the percent effect data versus the log of compound concentration used a 4-parameter concentration response curve fitting algorithm to calculate IC50 values. Compound concentrations tested were 10,000, 3,333, 1,111, 370.4, 123.4, 41.2, 13.7, 4.6, 1.5 and 0.5 nM with 0.25% residual DMSO.

human A2B receptors = human A2B receptors (Homo sapiens (Human), UniProt P29275); test: A2B antagonism in cAMP cell-based assay (LANCE cAMP, HEK293); details: HEK293 cells expressing human A2B receptor
human A2B receptors, sequence (P29275 whole entry): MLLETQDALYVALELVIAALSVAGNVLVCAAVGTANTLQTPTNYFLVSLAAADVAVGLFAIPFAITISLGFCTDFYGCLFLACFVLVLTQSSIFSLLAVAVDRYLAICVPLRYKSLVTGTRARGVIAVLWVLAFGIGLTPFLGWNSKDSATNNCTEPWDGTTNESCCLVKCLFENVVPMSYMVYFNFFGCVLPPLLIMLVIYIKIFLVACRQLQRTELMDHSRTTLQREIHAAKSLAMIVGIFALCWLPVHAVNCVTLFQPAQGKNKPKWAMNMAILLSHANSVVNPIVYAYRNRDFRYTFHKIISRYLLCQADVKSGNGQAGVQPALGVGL
Protocol: as §1, §2

human A2A receptors, sequence (P29274 whole entry): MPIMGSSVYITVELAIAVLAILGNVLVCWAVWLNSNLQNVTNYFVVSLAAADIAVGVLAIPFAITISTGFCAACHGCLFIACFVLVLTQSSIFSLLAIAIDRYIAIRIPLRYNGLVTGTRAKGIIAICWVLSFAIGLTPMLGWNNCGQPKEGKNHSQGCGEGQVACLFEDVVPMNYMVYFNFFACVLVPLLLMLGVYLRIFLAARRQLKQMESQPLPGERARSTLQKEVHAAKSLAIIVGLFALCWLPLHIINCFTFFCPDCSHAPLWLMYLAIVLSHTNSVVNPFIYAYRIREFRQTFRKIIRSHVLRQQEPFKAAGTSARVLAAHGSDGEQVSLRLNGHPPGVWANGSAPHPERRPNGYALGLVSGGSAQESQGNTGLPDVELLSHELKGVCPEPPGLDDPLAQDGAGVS

| IC50 (human A2A receptors) [nM] | IC50 (human A2B receptors) [nM] | Structure (SMILES) | A2B cAMP % Inh. @10000 nM (human A2B receptors; at 10000 nM) [% Inh.] |
| --- | --- | --- | --- |
| 1.4 | 8.4 | C[C@H]1CC[C@@H](c2nc3c4cc(F)cc(F)c4nc(N)n3n2)CN1c1cnn(C(C)(CO)CO)c1 (single isomer, unassigned) [Example 248, 2-(4-((2S,5R or 2R,5S)-5-(5-amino-7,9-difluoro-[1,2,4]triazolo[1,5-c]quinazolin-2-yl)-2-methylpiperidin-1-yl)-1H-pyrazol-1-yl)-2-methylpropane-1,3-diol] |  |
| 0.7 | 4.9 | COc1cc2nc(N)n3nc(C4CCC(C)N(c5cnn(C(C)(CO)CO)c5)C4)nc3c2cc1F (single isomer, unassigned) [Example 250, 2-(4-((2S,5R or 2R,5S)-5-(5-amino-9-fluoro-8-methoxy-[1,2,4]triazolo[1,5-c]quinazolin-2-yl)-2-methylpiperidin-1-yl)-1H-pyrazol-1-yl)-2-methylpropane-1,3-diol] |  |
| 86.6 | 1470 | CC1CCC(c2nc3c4cc(F)cc(F)c4nc(N)n3n2)CN1c1cnn(CC(C)(CO)CO)c1 (single isomer, unassigned) [Example 261] |  |
| 0.9 | 10.4 | COc1cc(F)cc2c1nc(N)n1nc(C3CC(C)CN(c4cn(C(C)(C)C(C)O)nc4C)C3)nc21 (single isomer, unassigned) [Example 207, (R or S)-3-(4-((3S,5R or 3R,5S)-3-(5-amino-9-fluoro-7-methoxy-[1,2,4]triazolo[1,5-c]quinazolin-2-yl)-5-methylpiperidin-1-yl)-3-methyl-1H-pyrazol-1-yl)-3-methylbutan-2-ol] |  |
| 0.5 | 63 | COc1cc(F)cc2c1nc(N)n1nc(C3CC(C)CN(c4cnn(C(C)C(C)O)c4C)C3)nc21 (single isomer, unassigned) [Example 221, (2R,3R or 2S,3S)-3-(4-((3R,5S or 3S,5R)-3-(5-amino-9-fluoro-7-methoxy-[1,2,4]triazolo[1,5-c]quinazolin-2-yl)-5-methylpiperidin-1-yl)-5-methyl-1H-pyrazol-1-yl)butan-2-ol] |  |
| 236 | 5780 | Cc1c(N2CC(C)CC(c3nc4c5cc(F)cc(F)c5nc(N)n4n3)C2)cnn1C(C)C(C)O (single isomer, unassigned) [Example 218, (2R,3R or 2S,3S)-3-(4-((3S,5R or 3R,5S)-3-(5-amino-7,9-difluoro-[1,2,4]triazolo[1,5-c]quinazolin-2-yl)-5-methylpiperidin-1-yl)-5-methyl-1H-pyrazol-1-yl)butan-2-ol] |  |
| 0.9 | 18.8 | COc1cc(F)cc2c1nc(N)n1nc([C@@H]3CCCN(c4cnn(C(C)(C)C(C)O)c4)C3)nc21 (single isomer, unassigned) [Example 244, (R or S)-3-(4-((R)-3-(5-amino-9-fluoro-7 methoxy-[1,2,4]triazolo[1,5-c]quinazolin-2-yl)piperidin-1-yl)-1H-pyrazol-1-yl)-3-methylbutan-2-ol] |  |
| 331 | > 10000 | Cc1nn(C(C)C(C)O)cc1N1CC(C)CC(c2nc3c4cc(F)cc(F)c4nc(N)n3n2)C1 (single isomer, unassigned) [Example 213, (2R,3R or 2S,3S)-3-(4-((3R,5S or 3S,5R)-3-(5-amino-7,9-difluoro-[1,2,4]triazolo[1,5-c]quinazolin-2-yl)-5-methylpiperidin-1-yl)-3-methyl-1H-pyrazol-1-yl)butan-2-ol] |  |
| 33.4 | 4480 | COc1cc2nc(N)n3nc([C@@H]4C[C@H](C)CN(c5cnn(CC(C)(C)O)c5)C4)nc3c2cc1F (single isomer, unassigned) [Example 157, 1-(4-((3R,5S or 3S,5R)-3-(5-amino-9-fluoro-8-methoxy-[1,2,4]triazolo[1,5-c]quinazolin-2-yl)-5-methylpiperidin-1-yl)-1H-pyrazol-1-yl)-2-methylpropan-2-ol] |  |
| 16 | 5100 | CC1CC(c2nc3c4cc(F)cc(F)c4nc(N)n3n2)CN(c2cnn(CC(C)(C)O)c2)C1 (single isomer, unassigned) [Example 181, 1-(4-((3S,5S or 3R,5R)-3-(5-amino-7,9-difluoro-[1,2,4]triazolo[1,5-c]quinazolin-2-yl)-5-methylpiperidin-1-yl)-1H-pyrazol-1-yl)-2-methylpropan-2-ol] |  |
| 23.9 | 4720 | Cc1nn(CC(C)(C)O)cc1N1CC(C)CC(c2nc3c4cc(F)cc(F)c4nc(N)n3n2)C1 (single isomer, unassigned) [Example 168, 1-(4-((3S,5R or 3R,5S)-3-(5-amino-7,9-difluoro-[1,2,4]triazolo[1,5-c]quinazolin-2-yl)-5-methylpiperidin-1-yl)-3-methyl-1H-pyrazol-1-yl)-2-methylpropan-2-ol] |  |
| 362 | > 10000 | CC1CC(c2nc3c4cc(F)cc(F)c4nc(N)n3n2)CN(c2cnn(CC(C)(C)O)c2)C1 (single isomer, unassigned) [Example 182, 1-(4-((3R,5R or 3S,5S)-3-(5-amino-7,9-difluoro-[1,2,4]triazolo[1,5-c]quinazolin-2-yl)-5-methylpiperidin-1-yl)-1H-pyrazol-1-yl)-2-methylpropan-2-ol] |  |
| 13 | 4310 | COc1cc(F)cc2c1nc(N)n1nc(C3CC(C)CN(c4cn(C(C)(C)C(C)O)nc4C)C3)nc21 (single isomer, unassigned) [Example 206, (S or R)-3-(4-((3R,5S or 3S,5R)-3-(5-amino-9-fluoro-7-methoxy-[1,2,4]triazolo[1,5-c]quinazolin-2-yl)-5-methylpiperidin-1-yl)-3-methyl-1H-pyrazol-1-yl)-3-methylbutan-2-ol] |  |
| 26 | 511 | COc1cc2nc(N)n3nc(C4CCC(C)N(c5cnn(CC(C)(C)N)c5)C4)nc3c2cc1F (single isomer, unassigned) [Example 263, 2-((3S,6R or 3R,6S)-1-(1-(2-amino-2-methylpropyl)-1H-pyrazol-4-yl)-6-methylpiperidin-3-yl)-9-fluoro-8-methoxy-[1,2,4]triazolo[1,5-c]quinazolin-5-amine] |  |
| 36 | 5310 | CC1CC(c2nc3c4cc(F)cc(F)c4nc(N)n3n2)CN(c2cnn(CC(C)(C)O)c2)C1 (single isomer, unassigned) [Example 163, 1-(4-((3R,5S or 3S,5R)-3-(5-amino-7,9-difluoro-[1,2,4]triazolo[1,5-c]quinazolin-2-yl)-5-methylpiperidin-1-yl)-1H-pyrazol-1-yl)-2-methylpropan-2-ol] |  |
| 0.8 | 55.9 | COc1cc(F)cc2c1nc(N)n1nc([C@@H]3CCCN(c4cn(C(C)C(C)O)nc4C)C3)nc21 (single isomer, unassigned) [Example 190] |  |
| 2.5 | 97.5 | COc1cc2nc(N)n3nc([C@@H]4CCCN(c5cnn(C(C)C(C)O)c5)C4)nc3c2cc1F (single isomer, unassigned) [Example 199, (2R,3S or 2S,3R)-3-(4-((R)-3-(5-amino-9-fluoro-8-methoxy-[1,2,4]triazolo[1,5-c]quinazolin-2-yl)piperidin-1-yl)-1H-pyrazol-1-yl)butan-2-ol] |  |
| 30.2 | 2000 | COc1cc(F)cc2c1nc(N)n1nc(C3CC(C)CN(c4cn(C(C)(C)CO)nc4C)C3)nc21 (single isomer, unassigned) [Example 175, 2-(4-((3R,5S or 3S,5R)-3-(5-amino-9-fluoro-7-methoxy-[1,2,4]triazolo[1,5-c]quinazolin-2-yl)-5-methylpiperidin-1-yl)-3-methyl-1H-pyrazol-1-yl)-2-methylpropan-1-ol] |  |
| 3.4 | 389 | COc1cc2nc(N)n3nc([C@@H]4CCCN(c5cnn(C(C)C(C)O)c5C)C4)nc3c2cc1F (single isomer, unassigned) [Example 195, (2S,3S or 2R,3R)-3-(4-((R)-3-(5-amino-9-fluoro-8-methoxy-[1,2,4]triazolo[1,5-c]quinazolin-2-yl)piperidin-1-yl)-5-methyl-1H-pyrazol-1-yl)butan-2-ol] |  |

| Structure (SMILES) | IC50 (human A2A receptors) [nM] | IC50 (human A2B receptors) [nM] | A2B cAMP % Inh. @10000 nM (human A2B receptors; at 10000 nM) [% Inh.] |
| --- | --- | --- | --- |
| COc1cc2nc(N)n3nc([C@H]4C[C@@H](C)CN(c5cn([C@H](C)[C@@H](C)O)nc5C)C4)nc3c2cc1F (single isomer, unassigned) [Example 210, (2R,3R or 2S,3S)-3-(4-((3S,5R or 3R,5S)-3-(5-amino-9-fluoro-8-methoxy-[1,2,4]triazolo[1,5-c]quinazolin-2-yl)-5-methylpiperidin-1-yl)-3-methyl-1H-pyrazol-1-yl)butan-2-ol] | 16.2 |  | 35 |
